Data on 1 molecule can be found in article PMC11783400, “Assessment of Potential Drug–Drug Interactions for Novel Oral Melanocortin‐1 Receptor Agonist Dersimelagon” (Pharmacology Research & Perspectives, 2025).

The target of one series is T1, CYP2D6 (Homo sapiens, UniProt P10635).
T1 construct: native enzyme in human liver microsomes
The series can be described thus: CYP activity inhibition in human liver microsomes. The class given is biochemical. The conditions noted are these: read-out: IC50 (μM) / Direct inhibition. The source says: CYP activity inhibition in human liver microsomes on CYP2D6

Series [1] addresses T2, CYP3A4 (Table 1); CYP3A (Homo sapiens, UniProt P08684).
T2 construct: native enzyme in human liver microsomes
Kind of series: CYP activity inhibition in human liver microsomes. The format is biochemical. The conditions noted are these: read-out: IC50 (μM) / Direct inhibition. The source says: CYP activity inhibition in human liver microsomes on CYP3A4 (Table 1); CYP3A (text)

The target in the next series is T3, OAT3 (Homo sapiens, UniProt Q8TCC7).
T3 construct: gene SLC22A8; expressed in HEK293 cells
T3 sequence (Q8TCC7 1-542): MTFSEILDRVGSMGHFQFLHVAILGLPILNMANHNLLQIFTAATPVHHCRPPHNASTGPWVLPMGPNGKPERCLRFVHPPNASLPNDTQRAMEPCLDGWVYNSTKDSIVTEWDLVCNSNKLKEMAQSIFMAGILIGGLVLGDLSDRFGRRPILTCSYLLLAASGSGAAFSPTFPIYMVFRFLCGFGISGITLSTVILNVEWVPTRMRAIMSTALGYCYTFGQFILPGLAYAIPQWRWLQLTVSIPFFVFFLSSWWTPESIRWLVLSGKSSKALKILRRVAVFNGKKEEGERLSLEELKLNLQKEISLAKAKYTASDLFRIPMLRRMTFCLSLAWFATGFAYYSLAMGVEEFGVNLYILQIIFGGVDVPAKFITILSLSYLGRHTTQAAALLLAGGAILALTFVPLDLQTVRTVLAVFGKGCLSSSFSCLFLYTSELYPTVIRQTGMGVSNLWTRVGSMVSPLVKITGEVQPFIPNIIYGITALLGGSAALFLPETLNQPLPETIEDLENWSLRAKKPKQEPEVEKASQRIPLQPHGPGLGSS
The series can be described thus: uptake inhibition in HEK293 cells expressing the transporter. The class given is cell-based. An excerpt:
uptake inhibition in HEK293 cells expressing the transporter on OAT3

For another series, the target named is T4, MATE2‐K (Homo sapiens, UniProt Q86VL8).
T4 construct: gene SLC47A2; expressed in HEK293 cells
T4 sequence (Q86VL8 1-566 isoform Q86VL8-3): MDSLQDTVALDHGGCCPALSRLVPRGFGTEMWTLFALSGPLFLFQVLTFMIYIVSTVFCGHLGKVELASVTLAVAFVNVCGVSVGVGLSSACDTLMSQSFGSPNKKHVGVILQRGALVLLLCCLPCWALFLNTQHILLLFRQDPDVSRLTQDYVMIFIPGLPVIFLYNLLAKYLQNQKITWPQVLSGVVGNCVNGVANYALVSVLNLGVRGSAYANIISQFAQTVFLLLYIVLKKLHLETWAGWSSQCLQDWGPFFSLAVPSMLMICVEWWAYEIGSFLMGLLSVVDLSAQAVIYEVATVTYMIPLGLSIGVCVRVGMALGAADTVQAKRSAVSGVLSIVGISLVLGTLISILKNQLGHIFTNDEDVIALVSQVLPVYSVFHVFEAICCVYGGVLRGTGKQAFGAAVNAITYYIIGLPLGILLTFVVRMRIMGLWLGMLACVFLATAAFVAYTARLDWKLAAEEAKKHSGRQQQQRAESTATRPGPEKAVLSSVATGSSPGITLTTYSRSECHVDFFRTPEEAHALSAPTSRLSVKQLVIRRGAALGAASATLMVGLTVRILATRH
The series is described as above. The class given is cell-based. An excerpt:
uptake inhibition in HEK293 cells expressing the transporter on MATE2‐K

Series [2] addresses T2, CYP3A4 (Table 1); CYP3A. Kind of series: time-dependent inactivation in human liver microsomes. The class given is biochemical. The following applies: read-out: Parameters / K I. The source says:
time-dependent inactivation in human liver microsomes on CYP3A4 (Table 1); CYP3A (text)

In a further series the target is T5, CYP2C8 (Homo sapiens, UniProt P10632).
T5 construct: native enzyme in human liver microsomes
T5 sequence (P10632 1-490): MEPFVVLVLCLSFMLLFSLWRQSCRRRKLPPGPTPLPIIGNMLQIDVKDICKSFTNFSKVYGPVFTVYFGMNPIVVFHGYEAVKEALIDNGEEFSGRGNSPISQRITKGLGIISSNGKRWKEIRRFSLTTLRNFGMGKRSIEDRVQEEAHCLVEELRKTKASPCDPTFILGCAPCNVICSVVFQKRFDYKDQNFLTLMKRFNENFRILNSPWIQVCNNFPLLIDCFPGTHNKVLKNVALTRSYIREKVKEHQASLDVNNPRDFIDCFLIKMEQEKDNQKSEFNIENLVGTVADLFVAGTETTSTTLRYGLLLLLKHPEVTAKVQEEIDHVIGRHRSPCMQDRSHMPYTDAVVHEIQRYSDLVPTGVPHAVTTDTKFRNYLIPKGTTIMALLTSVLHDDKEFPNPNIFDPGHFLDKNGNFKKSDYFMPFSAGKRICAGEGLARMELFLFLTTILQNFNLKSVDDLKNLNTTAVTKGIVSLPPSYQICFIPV
Kind of series: CYP activity inhibition in human liver microsomes. The format is biochemical. The conditions noted are these: read-out: IC50 (μM) / Direct inhibition. The source says:
CYP activity inhibition in human liver microsomes on CYP2C8

The target of the next series is T6, UGT1A1 (Homo sapiens, UniProt P22309).
T6 construct: native enzyme in human liver microsomes
T6 sequence (P22309 26-533): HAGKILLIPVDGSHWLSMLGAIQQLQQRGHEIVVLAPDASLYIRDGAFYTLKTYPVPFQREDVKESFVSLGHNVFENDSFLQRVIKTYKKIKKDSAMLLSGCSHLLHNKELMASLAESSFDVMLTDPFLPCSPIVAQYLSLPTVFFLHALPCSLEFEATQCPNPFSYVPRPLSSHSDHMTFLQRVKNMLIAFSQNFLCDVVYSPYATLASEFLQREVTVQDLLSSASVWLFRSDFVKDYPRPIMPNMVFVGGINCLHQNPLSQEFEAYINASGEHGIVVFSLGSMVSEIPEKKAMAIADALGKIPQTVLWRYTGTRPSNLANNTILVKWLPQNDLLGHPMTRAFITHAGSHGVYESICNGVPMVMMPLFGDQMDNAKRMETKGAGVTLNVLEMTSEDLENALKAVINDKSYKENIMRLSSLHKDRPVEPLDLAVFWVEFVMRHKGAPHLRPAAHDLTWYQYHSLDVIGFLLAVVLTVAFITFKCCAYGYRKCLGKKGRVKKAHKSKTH
The series can be described thus: glucuronidation inhibition in human liver microsomes. The format is biochemical. The conditions noted are these: substrate beta-estradiol, competitive. The source says: glucuronidation inhibition in human liver microsomes on UGT1A1

The target in the next series is T7, OCT2 (Homo sapiens, UniProt O15244).
T7 construct: gene SLC22A2; expressed in HEK293 cells
T7 sequence (O15244 1-555): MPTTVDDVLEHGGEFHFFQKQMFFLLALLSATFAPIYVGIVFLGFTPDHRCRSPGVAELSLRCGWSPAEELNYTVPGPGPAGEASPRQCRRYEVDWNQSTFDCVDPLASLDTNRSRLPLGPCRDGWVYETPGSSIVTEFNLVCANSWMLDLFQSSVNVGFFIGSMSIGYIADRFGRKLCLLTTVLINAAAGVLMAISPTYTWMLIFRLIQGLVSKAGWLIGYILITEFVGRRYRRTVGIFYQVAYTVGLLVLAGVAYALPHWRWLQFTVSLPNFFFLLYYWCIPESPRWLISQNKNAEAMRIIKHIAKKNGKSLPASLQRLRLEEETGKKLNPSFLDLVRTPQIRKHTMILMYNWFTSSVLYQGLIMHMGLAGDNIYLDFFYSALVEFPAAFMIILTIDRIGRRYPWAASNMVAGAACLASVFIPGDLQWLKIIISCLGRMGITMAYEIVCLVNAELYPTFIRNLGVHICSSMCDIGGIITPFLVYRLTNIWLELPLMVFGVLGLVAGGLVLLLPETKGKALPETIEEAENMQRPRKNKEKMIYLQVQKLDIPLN
Kind of series: uptake inhibition in HEK293 cells expressing the transporter. The format is cell-based. The source says:
uptake inhibition in HEK293 cells expressing the transporter on OCT2

T2 sequence (P08684 2-503): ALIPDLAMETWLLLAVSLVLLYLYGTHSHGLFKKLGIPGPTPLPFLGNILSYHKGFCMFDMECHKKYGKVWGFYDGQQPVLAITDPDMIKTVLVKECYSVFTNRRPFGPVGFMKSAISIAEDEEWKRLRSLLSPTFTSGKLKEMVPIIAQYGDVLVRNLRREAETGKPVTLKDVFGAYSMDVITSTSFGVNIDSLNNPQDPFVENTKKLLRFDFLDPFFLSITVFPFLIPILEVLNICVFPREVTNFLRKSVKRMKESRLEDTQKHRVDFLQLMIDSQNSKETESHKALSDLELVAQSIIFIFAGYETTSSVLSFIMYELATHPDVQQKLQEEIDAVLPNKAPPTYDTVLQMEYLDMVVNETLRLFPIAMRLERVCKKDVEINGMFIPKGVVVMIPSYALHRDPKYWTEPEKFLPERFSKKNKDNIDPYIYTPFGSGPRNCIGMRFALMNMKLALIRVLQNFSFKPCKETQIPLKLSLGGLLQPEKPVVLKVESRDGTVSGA
T1 sequence (P10635 whole entry): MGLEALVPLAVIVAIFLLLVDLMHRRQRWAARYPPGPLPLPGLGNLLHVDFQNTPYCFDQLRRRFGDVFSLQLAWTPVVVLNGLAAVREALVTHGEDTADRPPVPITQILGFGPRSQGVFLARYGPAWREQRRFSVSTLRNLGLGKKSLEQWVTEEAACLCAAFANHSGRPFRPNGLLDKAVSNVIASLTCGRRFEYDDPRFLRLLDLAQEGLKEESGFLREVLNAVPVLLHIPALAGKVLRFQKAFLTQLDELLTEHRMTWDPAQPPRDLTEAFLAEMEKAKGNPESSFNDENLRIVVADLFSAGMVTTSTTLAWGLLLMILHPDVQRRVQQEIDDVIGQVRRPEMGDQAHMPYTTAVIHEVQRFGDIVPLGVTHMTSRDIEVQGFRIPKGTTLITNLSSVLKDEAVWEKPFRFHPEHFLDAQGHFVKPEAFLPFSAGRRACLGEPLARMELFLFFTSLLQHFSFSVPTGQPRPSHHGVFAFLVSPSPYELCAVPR

As to `COC[C@H]1CN(C(=O)[C@]2(F)CN(C3CCCC3)C[C@H]2c2ccc(OC)cc2)C[C@@H]1c1ccc(C(F)(F)F)cc1N1CCC(C(=O)O)CC1` [dersimelagon], the IC50 is greater than 100 µM at CYP2D6; 74.6 µM at CYP3A4 (Table 1); CYP3A [1]; 0.227 µM against OAT3; greater than 27.4 µM against MATE2‐K; 24.2 µM on CYP2C8; 1.45 µM on UGT1A1 (direct inhibition). Moreover, the IC50 against OCT2 is greater than 28.7 µM. Also, the KI (inactivation) on CYP3A4 (Table 1); CYP3A [2] was 64.1 µM. Further, the Ki at UGT1A1 (read-out: Parameters / K i) was found to be 1.19 µM.
